Columns and labels:
NEP = biological target: T1, NEP (Rattus norvegicus, UniProt P07861); test: "In vitro" NEP-inhibitory activity (rat kidney cortex membranes, [3H][Leu5]-enkephaline); format: biochemical; conditions: membranes from rat kidney cortex
T1 construct: Membranes from kidney cortex were prepared according to the following procedure; from tissue; host or cells: rat kidney cortex membranes
T1 sequence (P07861 1-750): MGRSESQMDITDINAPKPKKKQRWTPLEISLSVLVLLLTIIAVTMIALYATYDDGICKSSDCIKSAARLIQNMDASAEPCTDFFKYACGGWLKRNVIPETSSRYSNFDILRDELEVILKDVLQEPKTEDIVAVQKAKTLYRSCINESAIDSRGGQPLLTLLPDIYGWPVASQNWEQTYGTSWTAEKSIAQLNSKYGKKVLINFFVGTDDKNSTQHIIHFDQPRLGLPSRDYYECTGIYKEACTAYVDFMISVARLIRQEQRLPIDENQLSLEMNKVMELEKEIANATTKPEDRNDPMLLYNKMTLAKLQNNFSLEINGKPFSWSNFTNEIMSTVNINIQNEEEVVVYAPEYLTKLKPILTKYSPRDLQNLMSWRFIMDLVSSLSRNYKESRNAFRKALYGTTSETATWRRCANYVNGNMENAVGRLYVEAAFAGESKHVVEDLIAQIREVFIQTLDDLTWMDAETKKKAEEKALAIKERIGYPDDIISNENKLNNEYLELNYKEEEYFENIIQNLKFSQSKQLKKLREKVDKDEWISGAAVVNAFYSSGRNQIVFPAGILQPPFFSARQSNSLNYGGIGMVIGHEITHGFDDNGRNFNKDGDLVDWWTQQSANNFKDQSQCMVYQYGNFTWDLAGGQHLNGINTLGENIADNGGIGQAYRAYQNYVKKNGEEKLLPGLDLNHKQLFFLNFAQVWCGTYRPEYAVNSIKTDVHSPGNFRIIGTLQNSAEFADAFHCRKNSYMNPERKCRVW
Procedure: a) NEP-inhibitory activity
Membranes from kidney cortex were prepared according to the following procedure.
Cortex was carefully dissected, finely minced and suspended in a homogenization buffer (10 mM sodium phosphate pH 7.4 containing 1 mM MgCl2, 30 mM NaCl, 0.02% NaN3) 1:15 weight/volume.
The tissue was then homogenized for 30 seconds using an Ultra-Turrax homogenizer.
The membranes were collected from the buffer/sucrose interface, washed twice with 50 mM TRIS/HCl buffer (pH 7.4) and resuspended into the same buffer for storage.
The membranes were stored in small aliquots at -80° C. until use.
The NEP-inhibitory activity was evaluated by using the following method.
Incubation (20 minutes at 30° C.) was stopped by adding HCl 0.1M (100 μl).

ACE = biological target: T2, ACE (Oryctolagus cuniculus, UniProt P12822); test: "In vitro" ACE-inhibitory activity (FAPGG substrate); format: biochemical; conditions: ACE purified by lung rabbit; tested as lithium salts
T2 construct: ACE (250 mU/ml purified by lung rabbit, EC 3.4.15.1 SIGMA); purchased SIGMA; host or cells: rabbit lung
T2 sequence (P12822 34-1310): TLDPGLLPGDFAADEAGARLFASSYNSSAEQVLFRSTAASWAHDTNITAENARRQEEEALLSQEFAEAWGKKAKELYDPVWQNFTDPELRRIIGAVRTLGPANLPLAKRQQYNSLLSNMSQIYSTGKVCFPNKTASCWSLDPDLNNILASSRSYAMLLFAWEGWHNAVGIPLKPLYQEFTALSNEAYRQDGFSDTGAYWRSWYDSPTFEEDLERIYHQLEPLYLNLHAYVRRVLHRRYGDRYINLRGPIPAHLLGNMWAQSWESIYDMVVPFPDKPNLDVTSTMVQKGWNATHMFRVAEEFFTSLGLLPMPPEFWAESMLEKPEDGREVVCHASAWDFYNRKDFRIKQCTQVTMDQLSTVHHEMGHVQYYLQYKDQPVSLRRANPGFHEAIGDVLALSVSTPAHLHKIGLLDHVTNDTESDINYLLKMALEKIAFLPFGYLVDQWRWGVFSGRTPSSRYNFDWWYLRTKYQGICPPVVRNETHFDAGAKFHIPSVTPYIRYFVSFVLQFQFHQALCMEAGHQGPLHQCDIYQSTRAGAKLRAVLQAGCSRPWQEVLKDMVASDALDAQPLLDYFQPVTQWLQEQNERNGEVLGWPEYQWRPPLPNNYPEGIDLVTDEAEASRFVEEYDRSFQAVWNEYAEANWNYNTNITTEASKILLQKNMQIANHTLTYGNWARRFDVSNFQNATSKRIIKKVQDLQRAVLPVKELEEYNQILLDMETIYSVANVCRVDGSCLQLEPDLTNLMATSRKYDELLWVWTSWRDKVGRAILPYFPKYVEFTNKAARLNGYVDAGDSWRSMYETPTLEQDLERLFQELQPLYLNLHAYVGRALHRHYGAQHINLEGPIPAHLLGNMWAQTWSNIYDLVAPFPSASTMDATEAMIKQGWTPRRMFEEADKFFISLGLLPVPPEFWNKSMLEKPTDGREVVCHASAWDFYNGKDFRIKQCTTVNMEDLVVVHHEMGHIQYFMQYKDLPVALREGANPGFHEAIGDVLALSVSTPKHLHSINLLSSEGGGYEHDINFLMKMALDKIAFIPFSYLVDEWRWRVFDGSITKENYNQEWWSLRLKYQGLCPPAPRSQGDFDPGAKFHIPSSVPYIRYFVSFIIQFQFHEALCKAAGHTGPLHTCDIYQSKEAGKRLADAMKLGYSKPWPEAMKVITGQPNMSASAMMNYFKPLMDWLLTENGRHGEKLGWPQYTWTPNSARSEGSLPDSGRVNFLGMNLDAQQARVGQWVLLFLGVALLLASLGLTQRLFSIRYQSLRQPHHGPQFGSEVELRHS
Procedure: b) ACE-inhibitory activity
The reaction was started by adding furylacryloylphenylalanylglycylglycine 0.8 mM (FAPGG-SIGMA).
Contemporaneously, by using a Beckman DU-50 spectrophotometer provided with a program for calculating delta A/minutes and regression coefficients of the enzyme kinetics curves, the absorbance at 340 nm was recorded in continuo for 5 minutes.

C[C@H](CS)C(=O)N1CCC[C@H]1C(=O)O [Captopril]
NEP-inhibitory activity IC50 (nM) (NEP; tested as lithium salts): not active

O=C([O-])[C@H](Cc1ccccc1)NC(=O)[C@H](Cc1ccccc1)NP(=O)(O)CCCCc1ccccc1.O=C([O-])[C@H](Cc1ccccc1)NC(=O)[C@H](Cc1ccccc1)NP(=O)(O)CCCCc1ccccc1.[Li+].[Li+] [Compound R-5, N-[N'-(4-phenyl)butylphosphonyl-L-phenylalanyl]-L-phenylalanine dilithium salt]
NEP inhibition (NEP; at a concentration corresponding to 10^-8 M): 42% | IC50 (ACE): 20 nM
